Assay results: patent US20080139558A1, “QUINOLONES USEFUL AS INDUCIBLE NITRIC OXIDE SYNTHASE INHIBITORS” (KALYPSYS, INC., priority 2006, published 2008)
pEC50: −log10 of the molar value.

What follows are compounds tested against T1, human iNOS (Homo sapiens, UniProt P35228) (assay: DAN assay of nitric oxide production (hiNOS)). Settings: enzyme expressed in HEK293 cells transiently transfected with human iNOS.
T1 construct: expressed in transfected cells; host or cells: HEK293
Assay type: cell-based
Description: The source of nitric oxide synthase (NOS) enzyme can be generated in several ways including induction of endogenous iNOS using cytokines and/or lipopolysaccharide (LPS) in various cell types known in the art. Alternatively, the gene encoding the enzyme can be cloned and the enzyme can be generated in cells via heterologous expression from a transient or stable expression plasmid with suitable features for protein expression as are known in the art. Enzymatic activity (nitric oxide production) is calcium independent for iNOS, while the constitutive NOS isoforms, nNOS and eNOS, become active with the addition of various cofactors added to cellular media or extract as are well known in the art. Enzymes specified in Table 1 were expressed in HEK293 cells transiently transfected with human iNOS.
A major metabolic pathway for nitric oxide is to nitrate and nitrite, which are stable metabolites within tissue culture, tissue, plasma, and urine (S Moncada, A Higgs, N Eng J Med 329, 2002 (1993)).
The level of nitrate or nitrite in the specimen can be quantified by any method known in the art which provides adequate sensitivity and reproducibility. A variety of protocols have also been described for detecting and quantifying nitrite and nitrate levels in biological fluids by ion chromatography (e.g., A Everett et al., J. Chromatogr. 706, 437 (1995); J M Monaghan et al., J. Chromatogr. 770, 143 (1997)), high-performance liquid chromatography (e.g., M Kelm et al., Cardiovasc. Res. 41, 765 (1999)), and capillary electrophoresis (MA Friedberg et al., J. Chromatogr. 781, 491 (1997)). For example, 2,3-diaminonaphthalene reacts with the nitrosonium cation that forms spontaneously from NO to form the fluorescent product 1H-naphthotriazole. Using 2,3-diaminonaphthalene (“DAN”), researchers have developed a rapid, quantitative fluorometric assay that can detect from 10 nM to 10 μM nitrite and is compatible with a multi-well microplate format. […] DAN reacts with nitrite ion and gives fluorescent naphthotriazole (MC Carré et al., Analusis 27, 835-838 (1999)). Table 1 provides the test results of various compounds of the subject invention using the DAN assay.
A specimen can be processed prior to determination of nitrate or nitrite as required by the quantification method, or in order to improve the results, or for the convenience of the investigator. For example, processing can involve centrifuging, filtering, or homogenizing the sample. If the sample is whole blood, the blood can be centrifuged to remove cells and the nitrate or nitrite assay performed on the plasma or serum fraction. If the sample is tissue, the tissue can be dispersed or homogenized by any method known in the art prior to determination of nitrate or nitrite. It may be preferable to remove cells and other debris by centrifugation or another method and to determine the nitrate or nitrite level using only the fluid portion of the sample, or the extracellular fluid fraction of the sample. The sample can also be preserved for later determination, for example by freezing of urine or plasma samples. When appropriate, additives may be introduced into the specimen to preserve or improve its characteristics for use in the nitrate or nitrite assay.
The “level” of nitrate, nitrite, or other NO-related product usually refers to the concentration (in moles per liter, micromoles per liter, or other suitable units) of nitrate or nitrite in the specimen, or in the fluid portion of the specimen. However, other units of measure can also be used to express the level of nitrate or nitrite. For example, an absolute amount (in micrograms, milligrams, nanomoles, moles, or other suitable units) can be used, particularly if the amount refers back to a constant amount (e.g., grams, kilograms, milliliters, liters, or other suitable units) of the specimens under consideration. A number of commercially available kits can be used. […]

T1 sequence (P35228 whole entry): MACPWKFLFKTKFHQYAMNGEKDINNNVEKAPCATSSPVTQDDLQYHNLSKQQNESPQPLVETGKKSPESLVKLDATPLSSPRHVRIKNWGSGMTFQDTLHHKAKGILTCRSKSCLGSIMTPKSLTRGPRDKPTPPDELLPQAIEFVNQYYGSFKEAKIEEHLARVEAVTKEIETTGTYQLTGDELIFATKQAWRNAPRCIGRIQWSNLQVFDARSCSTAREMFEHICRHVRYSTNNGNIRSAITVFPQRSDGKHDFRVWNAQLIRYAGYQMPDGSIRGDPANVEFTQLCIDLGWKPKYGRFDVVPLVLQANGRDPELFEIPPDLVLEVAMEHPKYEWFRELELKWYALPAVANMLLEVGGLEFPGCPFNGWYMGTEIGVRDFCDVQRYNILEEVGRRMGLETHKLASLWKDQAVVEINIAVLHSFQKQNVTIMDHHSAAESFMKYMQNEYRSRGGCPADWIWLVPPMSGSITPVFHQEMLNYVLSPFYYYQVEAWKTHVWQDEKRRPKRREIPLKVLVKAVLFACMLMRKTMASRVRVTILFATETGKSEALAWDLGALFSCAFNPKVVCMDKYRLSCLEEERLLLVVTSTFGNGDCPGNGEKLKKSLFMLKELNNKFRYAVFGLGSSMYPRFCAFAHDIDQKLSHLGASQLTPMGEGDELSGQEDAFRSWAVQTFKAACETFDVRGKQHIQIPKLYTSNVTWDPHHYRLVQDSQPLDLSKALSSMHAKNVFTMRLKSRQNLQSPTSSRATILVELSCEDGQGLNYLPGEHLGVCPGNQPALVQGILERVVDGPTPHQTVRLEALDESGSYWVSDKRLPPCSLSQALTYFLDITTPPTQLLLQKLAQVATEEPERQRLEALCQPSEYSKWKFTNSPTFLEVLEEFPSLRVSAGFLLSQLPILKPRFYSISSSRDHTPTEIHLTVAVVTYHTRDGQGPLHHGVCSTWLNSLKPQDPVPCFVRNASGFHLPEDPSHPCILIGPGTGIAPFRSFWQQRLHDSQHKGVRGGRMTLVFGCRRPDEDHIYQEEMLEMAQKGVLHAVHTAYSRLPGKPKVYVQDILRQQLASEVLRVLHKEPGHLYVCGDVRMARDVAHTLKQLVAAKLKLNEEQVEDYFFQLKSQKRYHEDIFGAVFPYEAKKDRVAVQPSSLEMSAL

**Q.** `Cc1ncsc1C(=O)N(Cc1cc(=O)n(C)c2c(F)cccc12)c1cccc(Cl)c1` [Example 117, N-(3-Chlorophenyl)-N-((8-fluoro-1-methyl-2-oxo-1,2-dihydroquinolin-4-yl)methyl)-4-methylthiazole-5-carboxamide] was tested. Which pEC50 did it give?
**A.** < 5.30

**Q.** With `Cc1ncsc1C(=O)N(Cc1c(F)c(=O)[nH]c2c(F)cccc12)c1cccc(Cl)c1` [Example 108, N-(3-Chlorophenyl)-N-((3,8-difluoro-2-oxo-1,2-dihydroquinolin-4-yl)methyl)-4-methylthiazole-5-carboxamide] as the compound, how does the pEC50 read?
**A.** ≥ 5.30

**Q.** With `O=c1cc(Cn2c(-c3cncs3)nc3ccccc32)c2ccc(F)c(F)c2[nH]1` [Example 191, 7,8-Difluoro-4-((2-(thiazol-5-yl)-1H-benzo[d]imidazol-1-yl)methyl)quinolin-2(1H)-one] as the compound, how does the pEC50 read?
**A.** ≥ 5.30

**Q.** How did the pEC50 turn out when `O=c1cc(CN(CCCc2ccco2)c2ccccc2)c2ccccc2[nH]1` [Example 24, 4-(((3-(Furan-2-yl)propyl)(phenyl)amino)rmethyl)quinolin-2(1H)-one] was run?
**A.** ≥ 5.30

**Q.** How did the pEC50 turn out when `Cc1ncsc1C(=O)N(Cc1cc(=O)[nH]c2c(F)c(F)ccc12)c1ccc(N2CCCCC2)cc1` [Example 170, N-((7,8-Difluoro-2-oxo-1,2-dihydroquinolin-4-yl)methyl)-4-methyl-N-(4-(piperidin-1-yl)phenyl)thiazole-5-carboxamide] was run?
**A.** < 5.30

**Q.** With `O=C(c1ccco1)N(Cc1cc(=O)[nH]c2ccc(F)cc12)c1ccccc1` [Example 18, N-((6-Fluoro-2-oxo-1,2-dihydroquinolin-4-yl)methyl)-N-phenylfuran-2-carboxamide] as the compound, how does the pEC50 read?
**A.** < 5.30

**Q.** `Cc1ncsc1C(=O)N(Cc1cc(=O)[nH]c2c(F)c(F)ccc12)c1cccc2ccccc12` [Example 179, N-(1-Naphthalene)-N-((7,8-fluoro-2-oxo-1,2-dihydroquinolin-4-yl)methyl)-4-methylthiazole-5-carboxamide] was tested. Which pEC50 did it give?
**A.** ≥ 5.30

**Q.** `Cn1nccc1C(=O)N(Cc1cc(=O)[nH]c2c(F)c(F)ccc12)c1cccc(Cl)c1` [Example 112, N-(3-Chlorophenyl)-N-((7,8-difluoro-2-oxo-1,2-dihydroquinolin-4-yl)methyl)-1-methyl-1H-pyrazole-5-carboxamide] was tested. Which pEC50 did it give?
**A.** < 5.30

**Q.** With `Cc1cccc(N(Cc2cc(=O)[nH]c3c(F)cccc23)C(=O)c2scnc2C)c1` [Example 93, N-(3-Methylphenyl)-N-((8-fluoro-2-oxo-1,2-dihydroquinolin-4-yl)methyl)-4-methylthiazole-5-carboxamide] as the compound, how does the pEC50 read?
**A.** ≥ 5.30

**Q.** How did the pEC50 turn out when `Cc1ncsc1C(=O)N(Cc1cc2cccc(F)c2[nH]c1=O)c1cccc(Cl)c1` [Example 171, N-(3-Chlorophenyl)-N-((8-fluoro-2-oxy-1,2-dihydroquinolin-3-yl)methyl)-4-methylthiazole-5-carboxamide] was run?
**A.** < 5.30

**Q.** `Cc1ncccc1C(=O)N(Cc1cc(=O)[nH]c2c(F)cccc12)c1cccc(Cl)c1` [Example 71, N-(3-Chlorophenyl)-N-((8-fluoro-2-oxo-1,2-dihydroquinolin-4-yl)methyl)-2-methylnicotinamide] was tested. Which pEC50 did it give?
**A.** < 5.30

**Q.** `O=C(c1cccnc1)N(Cc1cc(=O)[nH]c2c(F)cccc12)c1cccc(Cl)c1` [Example 68, N-(3-Chlorophenyl)-N-((8-fluoro-2-oxo-1,2-dihydroquinolin-4-yl)methyl)nicotinamide] was tested. Which pEC50 did it give?
**A.** < 5.30

**Q.** `Cc1ncsc1C(=O)N(Cc1c(F)c(=O)[nH]c2c(F)c(F)ccc12)c1cccc(Cl)c1` [Example 115, N-(3-Chlorophenyl)-4-methyl-N-((3,7,8-trifluoro-2-oxo-1,2-dihydroquinolin-4-yl)methyl)thiazole-5-carboxamide] was tested. Which pEC50 did it give?
**A.** ≥ 5.30

**Q.** How did the pEC50 turn out when `O=c1cc(Cn2c(C3CCNCC3)nc3ccccc32)c2ccc(F)c(F)c2[nH]1` [Example 212, 7,8-Difluoro-4-((2-(piperidin-4-yl)-1H-benzo[d]imidazol-1-yl)methyl)quinolin-2(1H)-one] was run?
**A.** < 5.30

**Q.** How did the pEC50 turn out when `CN(C)c1nc2ccccc2n1Cc1cc(=O)[nH]c2c(F)c(F)ccc12` [Example 201, 4-((2-(Dimethylamino)-1H-benzo[d]imidazol-1-yl)methyl)-7,8-difluoroquinolin-2(1H)-one] was run?
**A.** < 5.30

**Q.** How did the pEC50 turn out when `CC(C)CCc1nc2ccccc2n1Cc1cc(=O)[nH]c2c(F)c(F)ccc12` [Example 211, 7,8-Difluoro-4-((2-isopentyl-1H-benzo[d]imidazol-1-yl)methyl)quinolin-2(1H)-one] was run?
**A.** ≥ 5.30

**Q.** `O=C(c1ccccc1)N(Cc1cc(=O)[nH]c2ccccc12)c1ccccc1` [Example 6, N-[(2-Oxo-1,2-dihydroquinolin-4-yl)methyl]-N-phenylbenzamide] was tested. Which pEC50 did it give?
**A.** < 5.30

**Q.** How did the pEC50 turn out when `Cc1ncsc1C(=O)N(Cc1cc(=O)[nH]c2c(F)c(F)ccc12)c1cc(F)cc(F)c1` [Example 178, N-(3,5-Difluorophenyl)-N-((7,8-fluoro-2-oxo-1,2-dihydroquinolin-4-yl)methyl)-4-methylthiazole-5-carboxamide] was run?
**A.** ≥ 5.30

**Q.** How did the pEC50 turn out when `Cc1ncsc1CN(Cc1cc(=O)[nH]c2c(F)cccc12)c1cccc(Cl)c1` [Example 45, 4-(((3-Chlorophenyl)((4-methylthiazol-5-yl)methyl)amino)methyl)-8-fluoroquinolin-2(1H)-one] was run?
**A.** ≥ 5.30

**Q.** `Cc1ncsc1S(=O)(=O)N(Cc1cc(=O)[nH]c2c(F)cccc12)c1cccc(Cl)c1` [Example 42, N-(3-Chlorophenyl)-N-((8-fluoro-2-oxo-1,2-dihydroquinolin-4-yl)methyl)-4-methylthiazole-5-sulfonamide] was tested. Which pEC50 did it give?
**A.** ≥ 5.30

**Q.** How did the pEC50 turn out when `Cn1cncc1-c1nc2ccccc2n1Cc1cc(=O)[nH]c2c(F)c(F)ccc12` [Example 122, 7,8-Difluoro-4-((2-(1-methyl-1H-imidazol-5-yl)-1H-benzo[d]imidazol-1-yl)methyl)quinolin-2(1H)-one] was run?
**A.** ≥ 5.30

**Q.** How did the pEC50 turn out when `O=c1cc(CN(c2cccc(Cl)c2)S(=O)(=O)c2cccnc2)c2ccc(F)c(F)c2[nH]1` [Example 261, N-(3-chlorophenyl)-N-((7,8-difluoro-2-oxo-1,2-dihydroquinolin-4-yl)methyl)pyridine-3-sulfonamide] was run?
**A.** ≥ 5.30

**Q.** `O=C(c1cnccn1)N(Cc1cc(=O)[nH]c2c(F)cccc12)c1cccc(Cl)c1` [Example 70, N-(3-Chlorophenyl)-N-((8-fluoro-2-oxo-1,2-dihydroquinolin-4-yl)methyl)pyrazine-2-carboxamide] was tested. Which pEC50 did it give?
**A.** < 5.30

**Q.** `Cc1ncsc1C(=O)N(Cc1cc(=O)[nH]c2c(F)c(F)ccc12)c1cccc(Cl)c1F` [Example 96, N-(3-Chloro-2-fluorophenyl)-N-((7,8-fluoro-2-oxo-1,2-dihydroquinolin-4-yl)methyl)-4-methylthiazole-5-carboxamide] was tested. Which pEC50 did it give?
**A.** ≥ 5.30

**Q.** With `CC(C)c1cn(Cc2cc(=O)[nH]c3c(F)c(F)ccc23)c(-c2ccccc2)n1` [Example 254, 7,8-Difluoro-4-((4-isopropyl-2-phenyl-1H-imidazol-1-yl)methyl)quinolin-2(1H)-one] as the compound, how does the pEC50 read?
**A.** ≥ 5.30

**Q.** How did the pEC50 turn out when `Cc1oncc1C(=O)N(Cc1cc(=O)[nH]c2ccccc12)c1ccccc1` [Example 31, 5-Methyl-N-((2-oxo-1,2-dihydroquinolin-4-yl)methyl)-N-phenylisoxazole-4-carboxamide] was run?
**A.** < 5.30

**Q.** How did the pEC50 turn out when `O=C(c1ccccn1)N(Cc1cc(=O)[nH]c2c(F)cccc12)c1cccc(Cl)c1` [Example 67, N-(3-Chlorophenyl)-N-((8-fluoro-2-oxo-1,2-dihydroquinolin-4-yl)methyl)picolinamide] was run?
**A.** < 5.30

**Q.** `Cc1ccncc1C(=O)N(Cc1cc2cccc(F)c2[nH]c1=O)c1cccc(Cl)c1` [Example 172, N-(3-Chlorophenyl)-N-((8-fluoro-2-oxo-1,2-dihydroquinolin-3-yl)methyl)-4-methylnicotinamide] was tested. Which pEC50 did it give?
**A.** < 5.30

**Q.** With `O=C(c1cccs1)N(Cc1cc(=O)[nH]c2ccccc12)c1ccccc1` [Example 7, N-[(2-Oxo-1,2-dihydroquinolin-4-yl)methyl]-N-phenylthiophene-2-carboxamide] as the compound, how does the pEC50 read?
**A.** < 5.30
